# Source: patent US8389481B2, “Glutamate-enhanced cell-penetrating peptides and methods of using same” (University of Medicine and Dentistry of New Jersey, priority 2008, dated 2013)
# “And” between values parts separate entries of the source, which are not always exact repeats. Equal values may be shown once. Primed or numbered codes have the meaning given here. Ends that are not written are not given here. Peptide text beside a SMILES is read from it. * marks the point of attachment. {P353} = cell-penetrating peptide 353 (Glu-Oct6) attached at PNA N-terminus; {Lys-FITC} = C-terminal lysine carrying fluorescein (FITC); 5FAM = O=C1OC2(c3ccc(O)cc3Oc3cc(O)ccc32)c2ccc(C(=O)*)cc21; FITC′ = not defined here
# Tests used:
# Format in all cases: cell-based
# DU-145 cells [1] = assay: Peptide uptake by live cells, flow cytometry (geometric MFI); conditions: for geometric MFI compared among the peptides (FIG. 1A): 500 nM peptides, 4 hrs incubation; for effect of NaN3 on uptake: 0.1 or 1% NaN3, 300 nM peptide; for average geometric MFI: 300 nM peptides, 4° C., 4 hours (FIG. 2); for uptake of carboxydansyl peptide on coincubation with peptide 353: 300 nM each, 1 hr (FIG. 1D)
# Procedure: (§1) Uptake of peptides by live cells was compared by flow cytometry, using the exclusion dye 7-amino actinomycin D (7-AAD) to exclude dead cells from analyses.
# (§2) Cells: DU-145 and LNCaP cells were the gift of Dr. James Turkson (University of South Florida, Tampa, Fla.). DU-145 cells were grown in DMEM/Ham's F12 (Invitrogen, Carlsbad, Calif.) plus 10% newborn bovine serum (Hyclone, Logan, Utah). LNCaP cells were maintained in RPMI-1640 (Invitrogen) plus fetal bovine serum (Hyclone). Cell viabilities were determined using fluorescein diacetate (Sigma Chemical Co., St. Louis, Mo.) and a Universal RIII fluorescence microscope (Zeiss, Jena, Germany).
# (§3) Uptake and Fluorescence Quantification Studies: Peptides were added to subconfluent cultures of cells at times, temperatures, and concentrations indicated in experiments. Concentrations ranging from 0 to 3000 nM were assayed. Cells were analyzed in the presence of […] 7-AAD (eBioscience, San Digeo Calif.) to gate on live events. Fluorescence was quantified, after cells were harvested, using a FACScan flow cytometer. At least 10,000 events were acquired using CellQuest Pro software and an Apple Macintosh G4 dual coprocessor computer running OS X 10.3.9. Fluorescence detectors on the instrument were standardized prior to each acquisition run, so that fluorescence intensities from different days could be compared. Because the FACScan employs logarithmic amplifiers on the fluorescence detectors, the more accurate parameter with which to compare fluorescence intensities for different samples is the geometric mean fluorescence intensity (geometric MFI). In some studies, fixed cells (4% paraformaldehyde/DPBS) were analyzed on an Amnis ImageStream 200 imaging cytometer using IDEAS 3.0 software.
# LNCaP cells [2] = assay: Imaging flow cytometry, intracellular distribution of FITC-labeled peptides; conditions: 250 nM, 4 hours
# Procedure: (§4) FIG. 3A: DU-145 and LN-CaP cells were incubated with 250 nM peptides 351 or 353 for 4 hours, counterstained with 5 μM DRAQ 5, then fixed in paraformaldehyde and analyzed by imaging flow cytometry on an Amnis Imaging Cytometer. IDEAS software (Amnis) was used to generate and colorize the images. […] FIG. 3B: Live cell imaging of peptide 353 by DU-145 cells. 500 nM peptide 353 was incubated with DU-145 cells overnight (necessary for imaging purposes). Cells were washed with phenol red-free buffer, counter-stained with DRAQ5 at 10 μM, then examined under a Zeiss Axiovert 200 inverted phase contrast microscope with epifluorescence. The merged image confirms the presence of peptide 353 in nuclei. FIGS. 3C and D: DU-145 cells incubated with peptides 350 and 356, as described for FIG. 3B. Note the absence of FITC fluorescence in nuclei.
# (§5) Since flow cytometry only gives data regarding total shifts in fluorescence of a population, imaging flow cytometry and live imaging microscopy studies were performed to determine if the NLS augmented nuclear accumulation of the peptides. Imaging flow cytometry was chosen to provide data on intracellular distribution of FITC-labeled peptides. Inverted epifluorescence microscopy was chosen to eliminate inadvertant artifacts that may arise from fixation, such as nuclear translocation. For these studies, the cell-permeable fluorochrome DRAQ5 was used because it readily enters and stains nuclei of viable cells. […] It was not retained in the plasma membrane (FIG. 3A). […] The translocation of peptides to nuclei was complete in the sense that FITC and DRAQ5 fluorescence colocalized in all viable cells, although cytoplasmic fluorescence was visible as well. The FITC distribution was somewhat punctuate in the cytoplasmic portion of cells, leading us to conclude that the peptide may be accumulating within endosomes. […]
# as §3, with “Concentrations ranging from 0 to 3000 nM were assayed.” left out, “At least 10,000 events were acquired using CellQuest Pro software and an Apple Macintosh G4 dual coprocessor computer running OS X 10.3.9.” left out
# DU-145 cells [3] = assay: as above; conditions: 250 nM, 4 hours
# Procedure: as §4, §5
# as §3, with “Concentrations ranging from 0 to 3000 nM were assayed.” left out, “At least 10,000 events were acquired using CellQuest Pro software and an Apple Macintosh G4 dual coprocessor computer running OS X 10.3.9.” left out
# [4] = Cell death determined by staining with 7-AAD; conditions: human, DU-145 cells; 3000 nM, 1 hr (FIG. 1C)
# Procedure: (§6) In order to determine if uptake of peptide 353 was receptor-mediated or receptor-specific in any way, Glu residues were substituted by Phe residues (peptide 361) or Asn residues (peptide 362). The resulting peptides were incubated at 0 to 3000 nM with DU-145 cells for 1 hr. Cells were then harvested and processed for analysis by flow cytometry. […] At 3000 nM, peptides 361 and 362 induced cell death in more than 70% of the cells (determined by staining with 7-AAD); in the case of peptide 361, over 95% of DU-145 cells were positive for 7-AAD; therefore only geometric MFI for concentrations up to 1000 nM are shown in the figure. […] The higher MFI observed for peptide 365 is likely due to the hydrophobicity of both the Phe residues and the dansyl fluorochrome. It was concluded from these experiments that peptide 353 bound to a cell-surface receptor through the glutamate residues.
# as §3
# DU-145 cells [5] = assay: Cell death determined by staining with 7-AAD; conditions: concentrations higher than 300 nM
# Procedure: as §6, §3
# LNCaP cells [6] = assay: Peptide uptake by live cells, flow cytometry (geometric MFI); conditions: 3 μM peptide, 1 hr (FIG. 1B)
# Procedure: as §1, §2, §3
# LNCaP cells [7] = assay: Live cell imaging of nuclear localization (epifluorescence microscopy); conditions: 500 nM, 24 hrs incubation
# Procedure: as §5
# (§7) Live Cell Imaging Studies: A Zeiss Axiovert 200 inverted phase-contrast microscope outfitted with epifluorescence was used for live imaging studies. […] Images were acquired and analyzed using Zeiss Axiovision software.
# DU-145 cells [8] = assay: as above; conditions: 500 nM, 24 hrs incubation
# Procedure: as §5, §7
# [9] = 300 nM peptide, 4 hr, 37° C., NaN3 0%
# [10] = 300 nM peptide, 4 hr, 37° C., NaN3 0.1%
# [11] = 300 nM peptide, 4 hr, 37° C., NaN3 1.0%
# [12] = 300 nM peptide, 4 hr, NaN3 0.1%
# [13] = 300 nM peptide, 4 hr, NaN3 1.0%
# [14] = up to 300 nM, 1 hr, 37 ° C. (FIG. 1C), from approximately 40 without peptide
Compound,Geometric MFI (DU-145 cells [1]; [9]),Geometric MFI (DU-145 cells [1]; [10]),Geometric MFI (DU-145 cells [1]; [11]),"% Inhibition (DU-145 cells [1]; 300 nM peptide, 4 hr, NaN3 0%) [%]",% Inhibition (DU-145 cells [1]; [12]) [%],% Inhibition (DU-145 cells [1]; [13]) [%],geometric MFI compared among the peptides (FIG. 1A) (DU-145 cells [1]),"effect of NaN3 on uptake (DU-145 cells [1]; 4 hr, 37° C.)",average geometric MFI (DU-145 cells [1]),cell death (DU-145 cells [5]),also measured
EEEAA-FITC (not fully specified; carboxyfluorescein label; Synthetically produced Glu peptide (Peptide 351)),43.8,56.9,48.4,0,0,0,lowest values,no effect,–,–,accumulation in the cells when the plasma membrane was excluded (LNCaP cells [2]): much less accumulation; nuclei positive for DRAQ5 and FITC colocalization (LNCaP cells [2]): ~10%; accumulation in the cells when the plasma membrane was excluded (DU-145 cells [3]): much less accumulation; nuclei positive for DRAQ5 and FITC colocalization (DU-145 cells [3]): ~10%
"EEEAAGRKRKKRT-TATGATCTCCTCCGT-K-FITC (all peptide nucleic acid (PNA), 5' {P353}, 3' {Lys-FITC}) [Peptide 353-PNA]",–,–,–,–,–,–,–,–,–,–,"MFI of the cells with increasing concentration (DU-145 cells [1]; 0, 300, and 1000 nM, 18 hr (FIG. 4)): increased the MFI; MFI of small but highly fluorescent population of cells (DU-145 cells [1]; 300 nM, 18 hr (FIG. 4)): greater than 10^3"
GRKRKKRT-FITC (GRKRKKRT-{FITC′}) [Peptide 356],417.6,293,181,0,29.8,–,not nearly as great as that of peptide 353,–,325,–,–
"C[C@H](NC(=O)[C@H](C)NC(=O)[C@H](Cc1ccccc1)NC(=O)[C@H](Cc1ccccc1)NC(=O)[C@@H](N)Cc1ccccc1)C(=O)NCC(=O)N[C@@H](CCCNC(=N)N)C(=O)N[C@@H](CCCCN)C(=O)N[C@@H](CCCNC(=N)N)C(=O)N[C@@H](CCCCN)C(=O)N[C@@H](CCCCN)C(=O)N[C@@H](CCCNC(=N)N)C(=O)N[C@H](C(=O)N[C@@H](CCCCNC(=O)c1ccc2c(c1)C(=O)OC21c2ccc(O)cc2Oc2cc(O)ccc21)C(=O)O)[C@@H](C)O [Peptide 361, FFFAAGRKRKKRT-FITC] (H-FFFAAGRKRKKRTK(5FAM)-OH)",–,–,–,–,–,–,–,–,–,significant cell death,"Geometric MFI (DU-145 cells [1]; [14]): ~100; viability at 1 h, 3 µM [4]: < 50%"
"EEEAAGRKRKKRT-FITC (EEEAAGRKRKKRT-{FITC′}) [Peptide 353, glutamate peptide linked by alanine linker to Oct6 NLS]",151 and 151.4,155.7,114 and 114.4,0,0,–,significantly increased,–,486,not seen,"Geometric MFI (LNCaP cells [6]): 1500-2000; uptake of carboxyfluorescein peptide 353 on coincubation (DU-145 cells [1]; 300 nM 353 with 300 nM carboxydansyl peptide 365 or 366, 1 hr (FIG. 1D)): nearly unaltered uptake; Geometric MFI (DU-145 cells [1]; 3 μM peptide, 1 hr (FIG. 1B)): 1500-2000; accumulation in the nuclei (LNCaP cells [7]): accumulated in the nuclei; accumulation in the nuclei (DU-145 cells [8]): accumulated in the nuclei"
EEEAAKKK-FITC (EEEAAKKK-{FITC′}) [Peptide 352],58.6,61.8,47.4,0,0,19.1,significantly increased,no effect,186,–,–
NNNAAGRKRKKRT-K-dansyl (NNNAAGRKRKKRTK-dansyl) [Peptide 366],–,–,–,–,–,–,–,–,–,–,uptake of carboxydansyl peptide on coincubation with peptide 353 (DU-145 cells [1]): without concomitant uptake
EEE-FITC [Peptide 350],25.6,26.4,29.7,0,0,0,lowest values,no effect,–,–,–
FFFAAGRKRKKRT-K-dansyl (FFFAAGRKRKKRTK-dansyl) [Peptide 365],–,–,–,–,–,–,–,–,–,–,uptake of carboxydansyl peptide on coincubation with peptide 353 (DU-145 cells [1]): without concomitant uptake
"C[C@H](NC(=O)[C@H](C)NC(=O)[C@H](CC(N)=O)NC(=O)[C@H](CC(N)=O)NC(=O)[C@@H](N)CC(N)=O)C(=O)NCC(=O)N[C@@H](CCCNC(=N)N)C(=O)N[C@@H](CCCCN)C(=O)N[C@@H](CCCNC(=N)N)C(=O)N[C@@H](CCCCN)C(=O)N[C@@H](CCCCN)C(=O)N[C@@H](CCCNC(=N)N)C(=O)N[C@H](C(=O)N[C@@H](CCCCNC(=O)c1ccc2c(c1)C(=O)OC21c2ccc(O)cc2Oc2cc(O)ccc21)C(=O)O)[C@@H](C)O [Peptide 362, NNNAAGRKRKKRT-FITC] (H-NNNAAGRKRKKRTK(5FAM)-OH)",–,–,–,–,–,–,–,–,–,not seen,"Geometric MFI (DU-145 cells [1]; [14]): ~100; viability at 1 h, 3 µM [4]: < 50%"
